≈ marks a conversion by molar mass, not a printed value. Read-outs that look alike come from different tables or passages of the source.
Columns and labels:
HCT116 cells = test: Cell viability assay (Alamar Blue, 72 h), HCT116; assay type: cell-based, human; details: for IC50: read-out: Activity data for compounds: HCT116
A549 cells = details: for IC50: read-out: Activity data for compounds: A549; for anticancer activity / cytotoxicity in words: human lung and colon cancer cell lines (A549 and HCT116)
[1] = Solubility assay (shake-flask method); assay type: physicochemical; details: for increased solubility when compared to natural counterpart: 47 vs narciclasine, 52 vs pancratistatin; for solubility at 24 h: thermodynamic from solid, water, stirred 24 hours, shake-flask, LCMS, read-out: aq. Solubility
Procedure: A calibration was made for each compound by diluting a 1 mM DMSO solution to 10, 25, 50, 75, and 100 μM and then measuring their relative UV absorbance by LC-MS using a Kinetex© Evo C-18 50 mm column running a gradient from 5%→90% MeCN in water over 4 minutes at 0.4 mL/min.
The aqueous solubility of each compound was measured using the shake-flask method. 1.0 mg of compound was diluted to 40 mM with water then stirred for 24 hours. Each solution was then filtered, diluted 10-fold, and analyzed by LCMS. The relative UV absorbance of each compound was then compared to its calibration curve to quantify its aqueous solubility.

[2] = Mouse liver microsome assay; assay type: in vitro ADME; details: mouse liver microsomes, 3 h, percentage remaining
Procedure: A mixture of PBS (pH 7.4), NADPH regenerating system solution A (Corning Life Sciences), and NADPH regenerating system solution B (Corning Life Sciences) was incubated at 37° C. in a shaking incubator for 5 min. Next, compound was added in DMSO (final concentration 50 μM, 0.5% DMSO) before ice-cold mouse liver microsomes (Thermo Fisher, male CD-1 mice, pooled) were added (final protein concentration of 1 mg/mL). An aliquot was immediately removed, quenched with an equal volume of 100 μM internal standard in ice-cold acetonitrile, and centrifuged at 13,000 rcf for 3 min. The supernatant was diluted 1:5 in ddH2O and analyzed by LC-MS. The reactions were incubated at 37° C. in a shaking incubator for 3 h. A second aliquot was removed, quenched and diluted as before and analyzed by LC-MS. The ratio of the areas of analyte:internal standard at 3 hours was compared to the ratio at t0 to determine the percentage of compound remaining. Analysis was performed using a Kinetex® Evo C-18 50 mm column running a gradient from 3%→95% MeCN in water over 9 minutes at 0.4 mL/min. Internal standard=(+)-pancratistatin tetaacetate S4.

[3] = HCT-116, HCT116 human colon cancer cells, 72 h, Alamar Blue
[4] = A549 human lung cancer cells, 72 h, Alamar Blue
[5] = HCT116 human colon cancer cells, 72 h, Alamar Blue

IC50 (HCT116 cells; [3]) [µM] | IC50 (A549 cells; [4]) [µM] | SMILES | IC50 (HCT116 cells; Homo sapiens, HCT-116, 72 h) [µM] | IC50 (A549 cells) [µM] | anticancer activity / cytotoxicity in words (A549 cells) | also measured
– | – | N#Cc1c2c(cc3c1C(=O)N[C@@H]1C3=C[C@H](O)[C@@H](O)[C@H]1O)OCO2 [compound 46, 7-cyanolycoricidine] | 0.48 | 1.2 | – | activity compared to lycoricidine (3) in HCT116 cells (HCT116 cells): increased activity when compared to lycoricidine
0.147 | 0.22 | COc1cccc2c1C(=O)c1c(O)c3c(c(O)c1C2=O)C[C@@](O)(C(=O)CO)C[C@@H]3O[C@H]1C[C@H](N)[C@H](O)[C@H](C)O1 [doxorubicin, reference compound] | – | – | – | –
– | – | COCc1c2c(cc3c1C(=O)N[C@@H]1C3=C[C@H](O)[C@@H](O)[C@H]1O)OCO2 [compound 40, 7-methoxymethyl lycoricidine] | 50 | 48 | – | –
> 100 | > 100 | O=C1N[C@@H]2C(=C[C@H](O)[C@@H](O)[C@H]2O)c2cc3c(c(N4CCCC4)c21)OCO3 [compound 50] | – | – | did not show significant cytotoxicity | –
– | – | Nc1c2c(cc3c1C(=O)N[C@H]1[C@H](O)[C@H](O)[C@@H](O)[C@H](O)[C@H]31)OCO2 [compound 52, 7-aminopancratistatin] | 3.4 | 9 | – | increased solubility when compared to natural counterpart [1]: 6 fold; solubility at 24 h [1]: 3460 ± 140 µg/mL (≈ 10.7 mM)
– | – | O=C1N[C@H]2[C@H](O)[C@H](O)[C@@H](O)[C@H](O)[C@@H]2c2cc3c(cc21)OCO3 [compound 1, (+)-7-deoxypancratistatin, reference compound] | 1.5 | 2.9 | – | –
33 | 39 | O=C1N[C@@H]2C(=C[C@H](O)[C@@H](O)[C@H]2O)c2cc3c(c(N4CCOCC4)c21)OCO3 [compound 51, 7-(4-morpholinyl)lycoricidine] | – | – | did not show significant cytotoxicity | –
– | – | Nc1c2c(cc3c1C(=O)N[C@@H]1C3=C[C@H](O)[C@@H](O)[C@H]1O)OCO2 [compound 47, 7-aminolycoricidine] | 0.39 | 0.38 | – | increased solubility when compared to natural counterpart [1]: 11 fold; solubility at 24 h [1]: 3740 ± 200 µg/mL (≈ 12.2 mM)
– | – | O=C1N[C@@H]2C(=C[C@H](O)[C@@H](O)[C@H]2O)c2cc3c(c(CO)c21)OCO3 [compound 41, 7-hydroxymethyl lycoricidine] | > 100 | > 100 | less potent | –
– | – | O=C(O)Cc1c2c(cc3c1C(=O)N[C@@H]1C3=C[C@H](O)[C@@H](O)[C@H]1O)OCO2 [compound 45, 2-(7-lycoricidinyl)acetic acid] | 70 | 89 | – | –
– | – | COC(=O)c1c2c(cc3c1C(=O)N[C@@H]1C3=C[C@H](O)[C@@H](O)[C@H]1O)OCO2 [compound 42, 7-carboxymethyl lycoricidine] | 29 | 39 | – | –
– | – | C=CCc1c2c(cc3c1C(=O)N[C@@H]1C3=C[C@H](O)[C@@H](O)[C@H]1O)OCO2 [compound 38, 7-allyl lycoricidine] | > 100 | > 100 | – | –
12 | 28 | CNc1c2c(cc3c1C(=O)N[C@@H]1C3=C[C@H](O)[C@@H](O)[C@H]1O)OCO2 [compound 48, N-methyl-7-aminolycoricidine] | – | – | did not show significant cytotoxicity | –
– | – | O=C1N[C@@H]2C(=C[C@H](O)[C@@H](O)[C@H]2O)c2cc3c(c(C(=O)c4ccccc4)c21)OCO3 [compound 39, 7-oxophenyl lycoricidine] | 35 | 44 | – | –
> 100 | > 100 | CC(=O)Nc1c2c(cc3c1C(=O)N[C@@H]1C3=C[C@H](O)[C@@H](O)[C@H]1O)OCO2 [compound 49, 7-acetamidelycoricidine] | – | – | did not show significant cytotoxicity | –
80 | 74 | CCOC(=O)Cc1c2c(cc3c1C(=O)N[C@@H]1C3=C[C@H](O)[C@@H](O)[C@H]1O)OCO2 [compound 44, ethyl 2-(7-lycoricidinyl)acetate] | – | – | – | –
– | – | O=C1N[C@H]2[C@H](O)[C@H](O)[C@@H](O)[C@H](O)[C@@H]2c2cc3c(c(O)c21)OCO3 [compound 2, (+)-pancratistatin, reference compound] | 0.44 | 0.75 | – | solubility at 24 h [1]: 560 ± 70 µg/mL (≈ 1.72 mM)

SMILES | IC50 (HCT116 cells; [3]) [µM] | IC50 (A549 cells; [4]) [µM] | IC50 (HCT116 cells; Homo sapiens, HCT-116, 72 h) [µM] | IC50 (A549 cells) [µM] | anticancer activity / cytotoxicity in words (A549 cells) | also measured
O=C1N[C@@H]2C(=C[C@H](O)[C@@H](O)[C@H]2O)c2cc3c(cc21)OCO3 [compound 3, (+)-lycoricidine, reference compound] | 0.54 | 0.73 | – | – | – | –
O=C1N[C@@H]2C(=C[C@H](O)[C@@H](O)[C@H]2O)c2cc3c(c(O)c21)OCO3 [compound 4, (+)-narciclasine, reference compound] | – | 0.056 | – | – | – | IC50 (HCT116 cells; [5]): 0.0324 µM
O=C1N[C@@H]2C(=C[C@H](O)[C@@H](O)[C@H]2O)c2cc3c(c(C(=O)O)c21)OCO3 [compound 43, lycoricidine-7-carboxylic acid] | – | > 100 | 80 | – | – | –
[2H]C1=C2c3cc4c(c(O)c3C(=O)N[C@@]2([2H])[C@]([2H])(O)[C@]([2H])(O)[C@@]1([2H])O)OCO4 [4-d5, (+)-narciclasine 4-d5] | – | 0.066 | – | – | equipotent activity | IC50 (HCT116 cells; [5]): 0.043 µM; greater metabolic stability when compared to narciclasine (4) [2]: ~30%
[2H]C1([2H])Oc2cc3c(c(O)c2O1)C(=O)N[C@@H]1C3=C[C@H](O)[C@@H](O)[C@H]1O [4-d2, (+)-narciclasine 4-d2] | – | 0.07 | – | – | equipotent activity | IC50 (HCT116 cells; [5]): 0.04 µM; greater metabolic stability when compared to narciclasine (4) [2]: ~30%
